# Data from patent EP3643303A1, “COMPOUNDS FOR USE IN THE TREATMENT OR PREVENTION OF FIBROTIC DISEASES; PHARMACEUTICAL, COSMETIC COMPOSITIONS AND USES THEREOF” (InnovativeHealth Group SL, priority 2018, dated 2020).
# Legend:
# Format in all cases: cell-based
# [1] = tested on: α-SMA; test: α-SMA expression by Western blot in TGFβ-treated NIH-3T3 cells (myofibroblast differentiation); conditions: 1 h preincubation, TGFβ 10 ng/ml 24 h; Figure 5
# Experimental: It is well known that TGFβ drives the conversion of fibroblasts into myofibroblasts, and the accumulation of myofibroblasts cells in fibrotic skin is a hallmark of SSc. Myofibroblasts are characterized by the novo synthesis of α-smooth muscle actin (a-SMA) fibers. To investigate α-SMA expression NIH-3T3 cells were preincubated with either (+)CBD or (-)CBD for 1 h and then treated with TFGβ (10 ng/ml) for 24 h. Cells were washed with PBS and proteins extracted in 50 µl of lysis buffer (50 mM Tris-HCl pH 7.5, 150 mM NaCl, 10% glycerol and 1% NP-40) supplemented with 10mM NaF, 1 mM Na3VO4, 10 µg/ml leupeptine, 1 µg/ml pepstatin and aprotinin, and 1 µl/ml PMSF saturated. Protein concentration was determined by the Bradford assay (Bio-Rad, CA, USA) and 30 µg of proteins were boiled at 95 °C in Laemmli buffer and electrophoresed in 10% SDS/PAGE gels. Separated proteins were transferred to PVDF membranes (20V for 30 min) and blocked in TBS solution containing 0.1% Tween 20 and 5% non-fat dry milk for 1 hour at room temperature. Immunodetection of specific proteins was carried out by incubation with primary antibody against α-SMA (1:500; sc-32251, Santa Cruz). After washing membranes, horseradish peroxidase-conjugated secondary antibody was added and detected by chemiluminescence system (GE Healthcare Europe GmbH). […]
# [2] = target: TRPV-1 (Homo sapiens, UniProt Q8NER1); test: Capsaicin-induced cytotoxicity (YOYO-1, Incucyte) in HEK-293T-TRPV1 cells; parameters: expressed in transfected cells; host or cells: HEK-293T; conditions: Capsaicin 1 µM for 3 h, Figure 2B
# Experimental: Capsaicin-induced cytotoxicity as a model of TRPV-1 agonistic assay was also investigated in HEK-293T-TRPV1 cells. The cells (2x10^4/well) were cultured in triplicate in 96-well microtiter plates in 200 µL of complete medium and incubated with (-)CBD or (+)CBD and then stimulated with the agonist Capsaicin (1 µM) for 3 h. Capzasepine (10 µM) was used as the positive control of TRPV-1 antagonism. Then, TRPV-1 induced cytotoxicity was measured by fluorescence using the die YOYO-1 (Life Technologies). YOYO-1 was diluted in cell culture medium and added to a final concentration of 0.1 µM to both experimental and control wells. YOYO-1 is a cell impermeant cyanine dimer nucleic acid stain that can only enter cells with a compromised plasma membrane and fluorescently stain the nuclear DNA. By adding YOYO-1 to damaged cells an increase in YOYO-1 fluorescence is detected. Treated cells are placed in an Incucyte FLR imaging system, and the YOYO-1 fluorescence is measured after 3 h. […] Object counting analysis is performed using the Incucyte FLR software to calculate the total number of YOYO-1 fluorescence positive cells and total DNA containing objects (end point). The cytotoxicity index is calculated by dividing the number of YOYO-1 fluorescence positive objects by the total number of DNA containing objects for each treatment group.
# [3] = tested on: Nrf2 pathway; test: Nrf2 activation (ARE-Luc luciferase) in HaCaT-ARE-Luc keratinocytes; conditions: 6 h, increasing concentrations; Figure 7
# Source text: Nrf2 is a transcription factor which, upon activation in response to inflammatory or oxidative stress, activates a robust anti-inflammatory and cytoprotective transcription program. Therefore, Nrf2 activation may represent a novel approach for the treatment of scleroderma and other fibrotic diseases. Thus, the effect of CBD isomers on the activation of the Nrf2 pathway in the keratinocyte cell line HaCaT-ARE-Luc, containing the Nqo1 Antioxidant Response Element (ARE)-Luc reporter plasmid stably transfected, was explored. ARE is activated by all members of the CNC family of factors (Nrf1, Nrf2, Nrf3 and p45 NF-E2). The cells are cultivated in 96-well plates at the concentration of 2x10^4 cells/well in a CO2 incubator at 37°C. For induction of Nrf2 activation the cells were treated with increasing concentrations of the CBD isomers for 6 h. As a positive control the cells were treated with 0,01 mM of Tert-butyl-hydroperoxide (TBHP) for 6 h. […] Luciferase activity was measured using TriStar^2 Berthold/LB942 multimode reader (Berthold Technologies) following the instructions of the luciferase assay kit (Promega, Madison, WI, USA). The background obtained with the lysis buffer was subtracted in each experimental value, and the specific transactivation expressed as fold induction over basal levels (untreated cells).
# [4] = target: T1, human CB1 (Homo sapiens, UniProt P21554); test: CB1 antagonism assay (CRE-Luc reporter) in HEK-293T-CB1 cells stimulated with WIN-55,212-2; conditions: 15 min preincubation, then WIN-55,212-2 for 6 h; CRE-Luc luciferase; Figure 1
# T1 construct: HEK-293T-CB1 (stably transfected with CB1 cDNA); expressed in transfected cells; host or cells: HEK-293T
# Experimental: To investigate the biological activities of the CBD enantiomers on CB1 and TRPV1 receptors were performed functional assays in both HEK-293T-CB1 and HEK-293T-TRPV1 cells, which overexpress human CB1 and TRPV-1 receptors respectively. HEK-293T-CB1 (stably transfected with CB1 cDNA) were maintained in supplemented DMEM medium containing 10% FBS and 1% antibiotics penicillin/streptomycin (DMEM complete medium) at 37°C in a humidified atmosphere of 5% CO2. The cells were incubated in 24-well plates (1x10^5 cell/ml) and transiently transfected with 0,1 µg/ml of the plasmid CRE-Luc that contains six consensus cAMP responsive elements (CRE) linked to firefly luciferase. Transient transfections were performed with Rotifect (Carl Roth GmbH, Karlsruhe, Germany) according to the manufacturer's instructions and harvested 24 h after transfection. For CB1 antagonistic activity the transfected cells were incubated with increasing concentrations of the CBD enantiomers for 15 min and then stimulated with WIN-55, 212-2 (CB1 agonist), during 6 h and then luciferase activity measured in the cell lysates. […]
# TRPV-1, sequence (Q8NER1 whole entry): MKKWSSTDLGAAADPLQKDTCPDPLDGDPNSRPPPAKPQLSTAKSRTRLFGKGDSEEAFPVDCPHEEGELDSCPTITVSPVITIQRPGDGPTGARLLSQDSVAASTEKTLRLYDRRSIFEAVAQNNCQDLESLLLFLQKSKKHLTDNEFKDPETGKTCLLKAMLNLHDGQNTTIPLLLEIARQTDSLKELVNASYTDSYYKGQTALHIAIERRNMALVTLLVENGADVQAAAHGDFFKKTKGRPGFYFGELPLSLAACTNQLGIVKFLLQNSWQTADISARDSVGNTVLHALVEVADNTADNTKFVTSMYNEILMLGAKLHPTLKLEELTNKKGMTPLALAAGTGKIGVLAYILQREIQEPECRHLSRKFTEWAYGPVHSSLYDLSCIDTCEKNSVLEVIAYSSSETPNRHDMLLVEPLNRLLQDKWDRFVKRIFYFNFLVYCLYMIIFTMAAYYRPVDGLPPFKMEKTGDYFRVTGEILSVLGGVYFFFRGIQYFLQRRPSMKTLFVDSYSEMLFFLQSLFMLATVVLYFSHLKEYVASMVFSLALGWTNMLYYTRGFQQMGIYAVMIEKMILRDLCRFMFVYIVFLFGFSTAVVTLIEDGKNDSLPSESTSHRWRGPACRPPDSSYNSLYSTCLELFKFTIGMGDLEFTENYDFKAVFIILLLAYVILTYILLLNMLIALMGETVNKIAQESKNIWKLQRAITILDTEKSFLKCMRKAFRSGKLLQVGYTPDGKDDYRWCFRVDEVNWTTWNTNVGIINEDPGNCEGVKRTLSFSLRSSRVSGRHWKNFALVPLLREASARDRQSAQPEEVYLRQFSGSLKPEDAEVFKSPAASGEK
# T1 sequence (P21554 whole entry): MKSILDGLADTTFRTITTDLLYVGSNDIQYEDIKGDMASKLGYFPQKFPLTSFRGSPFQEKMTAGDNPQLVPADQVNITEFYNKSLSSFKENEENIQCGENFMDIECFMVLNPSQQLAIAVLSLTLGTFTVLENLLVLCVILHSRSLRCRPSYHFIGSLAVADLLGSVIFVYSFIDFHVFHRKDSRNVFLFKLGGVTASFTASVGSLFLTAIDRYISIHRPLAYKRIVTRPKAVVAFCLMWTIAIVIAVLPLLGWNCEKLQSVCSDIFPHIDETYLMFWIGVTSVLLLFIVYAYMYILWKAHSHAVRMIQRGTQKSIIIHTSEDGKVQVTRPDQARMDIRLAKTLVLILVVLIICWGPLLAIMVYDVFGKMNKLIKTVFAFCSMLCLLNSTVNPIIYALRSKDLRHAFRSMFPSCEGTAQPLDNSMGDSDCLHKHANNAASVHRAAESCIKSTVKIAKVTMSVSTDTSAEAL
Structure (SMILES),expression α-SMA protein induced by TGFβ [1],capsaicin-induced cytotoxicity (cytotoxicity index) [2],activation of the Nrf2 pathway [3],CB1 antagonistic activity [4]
"C=C(C)[C@H]1CCC(C)=C[C@@H]1c1c(O)cc(CCCCC)cc1O [(+)CBD, (+)Cannabidiol]",attenuated,prevent capsaicin-induced calcium mobilization,able to activate the Nrf2 pathway in keratinocytes and in a concentration-dependent manner,clear CB1 antagonistic activity
"C=C(C)[C@@H]1CCC(C)=C[C@H]1c1c(O)cc(CCCCC)cc1O [(-)CBD, 2-[(1R,6R)-3-methyl-6-prop-1-en-2-ylcyclohex-2-en-1-yl]-5-pentylbenzene-1,3-diol]",attenuated,prevent capsaicin-induced calcium mobilization,able to activate the Nrf2 pathway in keratinocytes and in a concentration-dependent manner,clear CB1 antagonistic activity
